In patent US20240116892A1, “HETEROCYCLIC AMIDE AND UREA COMPOUNDS AS JAK2 INHIBITORS” (Ajax Therapeutics, Inc., priority 2022, published 2024):

Target: JAK2 (JH1 domain-catalytic, Y1007F, Y1008F) kinase (Homo sapiens (Human), UniProt O60674, Y1007F/Y1008F)
Assay: JAK2 JH1 Domain Binding Assay
Details: qPCR readout
Outline: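 Competitive binding format: test compound, DNA-tagged JAK2 JH1 (Y1007F/Y1008F; HEK293-expressed NFkB fusion) and ligand-coated magnetic beads incubated 1 h at room temperature. Kinase retained on beads released with 0.5 μmol/L non-biotinylated ligand, then measured by qPCR.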

Sequence of JAK2 (JH1 domain-catalytic, Y1007F, Y1008F) kinase (O60674 849-1124 Y1007F/Y1008F): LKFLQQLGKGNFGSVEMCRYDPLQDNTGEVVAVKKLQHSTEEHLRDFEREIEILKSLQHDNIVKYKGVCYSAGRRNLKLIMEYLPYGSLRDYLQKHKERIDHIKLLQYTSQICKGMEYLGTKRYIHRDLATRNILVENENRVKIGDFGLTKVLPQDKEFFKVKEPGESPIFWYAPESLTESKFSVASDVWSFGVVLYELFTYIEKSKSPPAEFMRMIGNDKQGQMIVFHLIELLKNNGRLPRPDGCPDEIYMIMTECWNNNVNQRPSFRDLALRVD

Row | Structure (SMILES) | Kd [nM]
1 | CC(=O)Nc1cnc(N2CCC(CC(=O)Nc3cc(C)cc(C(F)(F)F)c3)CC2)cn1 [Example I-2, 2-(1-(5-acetamidopyrazin-2-yl)piperidin-4-yl)-N-(3-methyl-5-(trifluoromethyl)phenyl)acetamide] | 50 to 1000
2 | CC(=O)Nc1cnc(N2CCC(CC(=O)Nc3cc(C(F)(F)F)cn(C)c3=O)CC2)cn1 [Example I-3, 2-(1-(5-acetamidopyrazin-2-yl)piperidin-4-yl)-N-(1-methyl-2-oxo-5-(trifluoromethyl)-1,2-dihydropyridin-3-yl)acetamide] | 50 to 1000
3 | Cc1cc(NC(=O)C2(C3CCN(c4cnccn4)CC3)CC2)cc(C(F)(F)F)c1 [Example I-4, N-(3-methyl-5-(trifluoromethyl)phenyl)-1-(1-(pyrazin-2-yl)piperidin-4-yl)cyclopropane-1-carboxamide] | 50 to 1000
4 | Cn1cc(C(F)(F)F)cc(NC(=O)C2(C3CCN(c4cnccn4)CC3)CC2)c1=O [Example I-5, N-(1-methyl-2-oxo-5-(trifluoromethyl)-1,2-dihydropyridin-3-yl)-1-(1-(pyrazin-2-yl)piperidin-4-yl)cyclopropane-1-carboxamide] | 50 to 1000
5 | CC(=O)Nc1cnc(N2CCC(CC(=O)Nc3cccc(C(F)(F)F)c3)CC2)cn1 [Example I-6, 2-(1-(5-acetamidopyrazin-2-yl)piperidin-4-yl)-N-(3-(trifluoromethyl)phenyl)acetamide] | 50 to 1000
6 | CC(=O)Nc1cnc(N2CCC(CC(=O)Nc3cc(CN4CCN(C)CC4)cc(C(F)(F)F)c3)CC2)cn1 [Example I-7, 2-(1-(5-acetamidopyrazin-2-yl)piperidin-4-yl)-N-(3-((4-methylpiperazin-1-yl)methyl)-5-(trifluoromethyl)phenyl)acetamide] | 1000 to 5000
7 | Cc1cc(NC(=O)N(C)C2CCN(c3cnccn3)CC2)cc(C(F)(F)F)c1 [Example I-8, 1-methyl-3-(3-methyl-5-(trifluoromethyl)phenyl)-1-(1-(pyrazin-2-yl)piperidin-4-yl)urea] | 10 to 50
8 | CN(C(=O)Nc1cc(N2CCC(O)CC2)cc(C(F)(F)F)c1)C1CCN(c2cnccn2)CC1 [Example I-9, 3-(3-(4-hydroxypiperidin-1-yl)-5-(trifluoromethyl)phenyl)-1-methyl-1-(1-(pyrazin-2-yl)piperidin-4-yl)urea] | 1000 to 5000
9 | CN(C(=O)Nc1cc(C(F)(F)F)cn(C)c1=O)C1CCN(c2cnccn2)CC1 [Example I-10, 1-methyl-3-(1-methyl-2-oxo-5-(trifluoromethyl)-1,2-dihydropyridin-3-yl)-1-(1-(pyrazin-2-yl)piperidin-4-yl)urea] | 10 to 50
10 | CC(=O)Nc1cnc(N2CCC(N(C)C(=O)Nc3cc(CN4CCN(C)CC4)cc(C(F)(F)F)c3)CC2)cn1 [Example I-19, N-(5-(4-(1-methyl-3-(3-((4-methylpiperazin-1-yl)methyl)-5-(trifluoromethyl)phenyl)ureido)piperidin-1-yl)pyrazin-2-yl)acetamide] | 10 to 50
11 | Cc1c[nH]c2ncc(N3CCC(N(C)C(=O)Nc4cc(C(F)(F)F)cn(C)c4=O)CC3)nc12 [Example I-30, 1-methyl-3-(1-methyl-2-oxo-5-(trifluoromethyl)-1,2-dihydropyridin-3-yl)-1-(1-(7-methyl-5H-pyrrolo[2,3-b]pyrazin-2-yl)piperidin-4-yl)urea] | < 10
12 | Cc1cc2nc(N3CCC(N(C)C(=O)Nc4cc(C(F)(F)F)cn(C)c4=O)CC3)cnc2[nH]1 [Example I-31, 1-methyl-3-(1-methyl-2-oxo-5-(trifluoromethyl)-1,2-dihydropyridin-3-yl)-1-(1-(6-methyl-5H-pyrrolo[2,3-b]pyrazin-2-yl)piperidin-4-yl)urea] | < 10
13 | CN(C(=O)Nc1cc(C(F)(F)F)cn(C)c1=O)C1CCN(c2cnc3[nH]cnc3c2)CC1 [Example I-38, 1-(1-(3H-imidazo[4,5-b]pyridin-6-yl)piperidin-4-yl)-1-methyl-3-(1-methyl-2-oxo-5-(trifluoromethyl)-1,2-dihydropyridin-3-yl)urea] | 10 to 50
14 | CN(C(=O)Nc1cc(C(F)(F)F)cn(C)c1=O)C1CCN(c2cnc3[nH]cc(F)c3n2)CC1 [Example I-39, 1-(1-(7-fluoro-5H-pyrrolo[2,3-b]pyrazin-2-yl)piperidin-4-yl)-1-methyl-3-(1-methyl-2-oxo-5-(trifluoromethyl)-1,2-dihydropyridin-3-yl)urea] | < 10

Other lines, results leading:

Row | Kd [nM] | Structure (SMILES)
15 | < 10 | Cc1cc(NC(=O)N(C)C2CCN(c3cnc4[nH]ccc4n3)CC2)cc(C(F)(F)F)c1 [Example I-11, 1-(1-(5H-pyrrolo[2,3-b]pyrazin-2-yl)piperidin-4-yl)-1-methyl-3-(3-methyl-5-(trifluoromethyl)phenyl)urea]
16 | < 10 | CC(=O)Nc1ccc(N2CCC(N(C)C(=O)Nc3cc(C)cc(C(F)(F)F)c3)CC2)cn1 [Example I-12, N-(5-(4-(1-methyl-3-(3-methyl-5-(trifluoromethyl)phenyl)ureido)piperidin-1-yl)pyridin-2-yl)acetamide]
17 | < 10 | CC(=O)Nc1cnc(N2CCC(N(C)C(=O)Nc3cc(C)cc(C(F)(F)F)c3)CC2)cn1 [Example I-13, N-(5-(4-(1-methyl-3-(3-methyl-5-(trifluoromethyl)phenyl)ureido)piperidin-1-yl)pyrazin-2-yl)acetamide]
18 | < 10 | CC(=O)Nc1cnc(N2CCC(N(C)C(=O)Nc3cc(C(F)(F)F)cn(C)c3=O)CC2)cn1 [Example I-14, N-(5-(4-(1-methyl-3-(1-methyl-2-oxo-5-(trifluoromethyl)-1,2-dihydropyridin-3-yl)ureido)piperidin-1-yl)pyrazin-2-yl)acetamide]
19 | < 10 | CN(C(=O)Nc1cc(C(F)(F)F)cn(C)c1=O)C1CCN(c2cnc3[nH]ccc3n2)CC1 [Example I-15, 1-(1-(5H-pyrrolo[2,3-b]pyrazin-2-yl)piperidin-4-yl)-1-methyl-3-(1-methyl-2-oxo-5-(trifluoromethyl)-1,2-dihydropyridin-3-yl)urea]
20 | < 10 | CC(=O)Nc1cnc(N2CCC(N(C)C(=O)Nc3cccc(C(F)(F)F)c3)CC2)cn1 [Example I-16, N-(5-(4-(1-methyl-3-(3-(trifluoromethyl)phenyl)ureido)piperidin-1-yl)pyrazin-2-yl)acetamide]
21 | < 10 | Cc1cc(NC(=O)N(C)C2CCN(c3cnc4[nH]ncc4c3)CC2)cc(C(F)(F)F)c1 [Example I-17, 1-(1-(1H-pyrazolo[3,4-b]pyridin-5-yl)piperidin-4-yl)-1-methyl-3-(3-methyl-5-(trifluoromethyl)phenyl)urea]
22 | < 10 | CN(C(=O)Nc1cc(C(F)(F)F)cn(C)c1=O)C1CCN(c2cnc(NC(=O)C3CC3)cn2)CC1 [Example I-18, N-(5-(4-(1-methyl-3-(1-methyl-2-oxo-5-(trifluoromethyl)-1,2-dihydropyridin-3-yl)ureido)piperidin-1-yl)pyrazin-2-yl)cyclopropanecarboxamide]
23 | < 10 | CC(=O)Nc1ccc(N2CCC(N(C)C(=O)Nc3cc(C(F)(F)F)cn(C)c3=O)CC2)cn1 [Example I-20, N-(5-(4-(1-methyl-3-(1-methyl-2-oxo-5-(trifluoromethyl)-1,2-dihydropyridin-3-yl)ureido)piperidin-1-yl)pyridin-2-yl)acetamide]
24 | < 10 | CN(C(=O)Nc1cc(C(F)(F)F)cn(C)c1=O)C1CCN(c2cnc3[nH]ccc3c2)CC1 [Example I-21, 1-(1-(1H-pyrrolo[2,3-b]pyridin-5-yl)piperidin-4-yl)-1-methyl-3-(1-methyl-2-oxo-5-(trifluoromethyl)-1,2-dihydropyridin-3-yl)urea]
25 | < 10 | CC(=O)Nc1cnc(N2CCC(N(C)C(=O)Nc3cc(C(F)(F)F)cc(C)n3)CC2)cn1 [Example I-23, N-(5-(4-(1-methyl-3-(6-methyl-4-(trifluoromethyl)pyridin-2-yl)ureido)piperidin-1-yl)pyrazin-2-yl)acetamide]
26 | < 10 | CN(C(=O)Nc1cc(C(F)(F)F)cn(C)c1=O)C1CCN(c2ccc(NC(=O)C3CC3)nc2)CC1 [Example I-24, N-(5-(4-(1-methyl-3-(1-methyl-2-oxo-5-(trifluoromethyl)-1,2-dihydropyridin-3-yl)ureido)piperidin-1-yl)pyridin-2-yl)cyclopropanecarboxamide]
27 | < 10 | CN(C(=O)Nc1cc(C(F)(F)F)cn(C)c1=O)C1CCN(c2cnc3[nH]c(C4CC4)cc3n2)CC1 [Example I-25, 1-(1-(6-cyclopropyl-5H-pyrrolo[2,3-b]pyrazin-2-yl)piperidin-4-yl)-1-methyl-3-(1-methyl-2-oxo-5-(trifluoromethyl)-1,2-dihydropyridin-3-yl)urea]
28 | < 10 | CN(C(=O)Nc1cc(C(F)(F)F)cn(C)c1=O)C1CCN(c2cnc3[nH]ncc3c2)CC1 [Example I-26, 1-(1-(1H-pyrazolo[3,4-b]pyridin-5-yl)piperidin-4-yl)-1-methyl-3-(1-methyl-2-oxo-5-(trifluoromethyl)-1,2-dihydropyridin-3-yl)urea]
29 | < 10 | Cc1n[nH]c2ncc(N3CCC(N(C)C(=O)Nc4cc(C(F)(F)F)cn(C)c4=O)CC3)cc12 [Example I-28, 1-methyl-1-(1-(3-methyl-1H-pyrazolo[3,4-b]pyridin-5-yl)piperidin-4-yl)-3-(1-methyl-2-oxo-5-(trifluoromethyl)-1,2-dihydropyridin-3-yl)urea]
30 | < 10 | CN(C(=O)Nc1cc(C(F)(F)F)cn(C)c1=O)[C@@H]1CCN(c2cnc3[nH]ncc3c2)CC1(F)F [Example I-29-a, (R)-1-(3,3-difluoro-1-(1H-pyrazolo[3,4-b]pyridin-5-yl)piperidin-4-yl)-1-methyl-3-(1-methyl-2-oxo-5-(trifluoromethyl)-1,2-dihydropyridin-3-yl)urea]
31 | < 10 | CN(C(=O)Nc1cc(C(F)(F)F)cn(C)c1=O)[C@H]1CCN(c2cnc3[nH]ncc3c2)CC1(F)F [Example I-29-b, (S)-1-(3,3-difluoro-1-(1H-pyrazolo[3,4-b]pyridin-5-yl)piperidin-4-yl)-1-methyl-3-(1-methyl-2-oxo-5-(trifluoromethyl)-1,2-dihydropyridin-3-yl)urea]
